In patent publication US9340590B2 (priority 2011, dated 2016) one finds IC50 data, which are given here for eight molecules.

Holding throughout (assay): cell-based
Assay [1] has as its target hNav1.5 (Homo sapiens, UniProt Q14524). To be noted: IonWorks Quattro, use-dependent block, hNav1.5; read-out: IWQ Use Nav1.5. A general note: The patch-clamp technique gives a direct electrical read-out from membranes.
Assay [2] concerns the target hNav1.7 (Homo sapiens, UniProt Q15858). It is filed as cell-based. To be noted: IonWorks Quattro, use-dependent block, hNav1.7; read-out: IWQ Use Nav1.7.
The target in assay [3] is hNav1.3 (Homo sapiens, UniProt Q9NY46). The following applies: IonWorks Quattro, use-dependent block, hNav1.3; read-out: IWQ Use Nav1.3.
hNav1.3, sequence (Q9NY46 whole entry, looked up): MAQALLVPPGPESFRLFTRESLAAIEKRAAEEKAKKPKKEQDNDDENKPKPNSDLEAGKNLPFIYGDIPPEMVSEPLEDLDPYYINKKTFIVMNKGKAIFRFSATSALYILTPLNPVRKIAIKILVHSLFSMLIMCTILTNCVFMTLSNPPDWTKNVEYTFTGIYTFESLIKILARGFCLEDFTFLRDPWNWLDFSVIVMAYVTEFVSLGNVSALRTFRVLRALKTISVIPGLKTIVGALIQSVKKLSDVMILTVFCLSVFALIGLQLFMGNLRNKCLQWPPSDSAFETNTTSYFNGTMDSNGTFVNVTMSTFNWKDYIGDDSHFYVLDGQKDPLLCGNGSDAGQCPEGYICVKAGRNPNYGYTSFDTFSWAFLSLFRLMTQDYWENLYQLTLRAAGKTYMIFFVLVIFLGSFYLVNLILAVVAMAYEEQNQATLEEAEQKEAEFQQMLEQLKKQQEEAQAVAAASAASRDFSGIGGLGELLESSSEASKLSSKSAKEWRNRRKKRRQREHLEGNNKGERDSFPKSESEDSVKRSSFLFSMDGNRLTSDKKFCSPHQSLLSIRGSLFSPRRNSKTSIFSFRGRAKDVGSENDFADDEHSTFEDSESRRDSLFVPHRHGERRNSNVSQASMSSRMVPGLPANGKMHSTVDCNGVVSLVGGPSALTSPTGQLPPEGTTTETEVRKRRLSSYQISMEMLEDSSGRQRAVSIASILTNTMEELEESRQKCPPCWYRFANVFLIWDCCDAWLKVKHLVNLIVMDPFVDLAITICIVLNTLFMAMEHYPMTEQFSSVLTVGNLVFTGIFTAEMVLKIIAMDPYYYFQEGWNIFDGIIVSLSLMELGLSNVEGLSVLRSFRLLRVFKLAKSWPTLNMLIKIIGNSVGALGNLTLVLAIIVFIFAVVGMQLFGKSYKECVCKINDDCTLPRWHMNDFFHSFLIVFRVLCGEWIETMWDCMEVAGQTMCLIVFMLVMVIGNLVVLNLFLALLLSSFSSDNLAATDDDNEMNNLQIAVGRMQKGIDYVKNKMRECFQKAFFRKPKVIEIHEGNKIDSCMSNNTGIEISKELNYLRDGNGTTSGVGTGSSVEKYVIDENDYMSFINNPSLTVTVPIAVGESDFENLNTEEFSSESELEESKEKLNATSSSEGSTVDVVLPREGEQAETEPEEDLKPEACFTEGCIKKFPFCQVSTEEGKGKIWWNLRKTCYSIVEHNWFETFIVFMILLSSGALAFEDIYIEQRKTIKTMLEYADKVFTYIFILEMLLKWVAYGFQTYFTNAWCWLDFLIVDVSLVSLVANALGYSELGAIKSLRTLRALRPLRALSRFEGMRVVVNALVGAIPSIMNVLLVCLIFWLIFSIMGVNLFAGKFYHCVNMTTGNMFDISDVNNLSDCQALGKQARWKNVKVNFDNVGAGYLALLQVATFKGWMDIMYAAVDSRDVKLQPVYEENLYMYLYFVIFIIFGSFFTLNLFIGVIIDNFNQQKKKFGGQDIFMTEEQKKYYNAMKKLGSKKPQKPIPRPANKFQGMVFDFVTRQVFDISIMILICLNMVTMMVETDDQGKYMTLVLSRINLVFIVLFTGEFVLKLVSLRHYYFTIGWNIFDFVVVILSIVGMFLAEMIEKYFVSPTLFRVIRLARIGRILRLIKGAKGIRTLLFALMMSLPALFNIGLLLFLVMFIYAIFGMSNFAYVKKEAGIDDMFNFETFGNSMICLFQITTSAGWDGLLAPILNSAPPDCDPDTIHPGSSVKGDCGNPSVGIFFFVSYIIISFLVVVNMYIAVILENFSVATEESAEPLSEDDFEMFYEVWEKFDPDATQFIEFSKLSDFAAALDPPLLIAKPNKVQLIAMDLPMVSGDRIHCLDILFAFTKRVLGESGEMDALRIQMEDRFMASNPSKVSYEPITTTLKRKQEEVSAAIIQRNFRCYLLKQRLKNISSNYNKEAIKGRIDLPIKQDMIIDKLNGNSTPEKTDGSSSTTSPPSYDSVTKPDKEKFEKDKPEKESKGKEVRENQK

Positions of bridges follow the written chain, without caps; N, C: chain ends. Residues, ends and D or L forms follow the SMILES beside them. Where only a bound is given, the exact number is not on record here.

hNav1.5, sequence (Q14524 whole entry, looked up): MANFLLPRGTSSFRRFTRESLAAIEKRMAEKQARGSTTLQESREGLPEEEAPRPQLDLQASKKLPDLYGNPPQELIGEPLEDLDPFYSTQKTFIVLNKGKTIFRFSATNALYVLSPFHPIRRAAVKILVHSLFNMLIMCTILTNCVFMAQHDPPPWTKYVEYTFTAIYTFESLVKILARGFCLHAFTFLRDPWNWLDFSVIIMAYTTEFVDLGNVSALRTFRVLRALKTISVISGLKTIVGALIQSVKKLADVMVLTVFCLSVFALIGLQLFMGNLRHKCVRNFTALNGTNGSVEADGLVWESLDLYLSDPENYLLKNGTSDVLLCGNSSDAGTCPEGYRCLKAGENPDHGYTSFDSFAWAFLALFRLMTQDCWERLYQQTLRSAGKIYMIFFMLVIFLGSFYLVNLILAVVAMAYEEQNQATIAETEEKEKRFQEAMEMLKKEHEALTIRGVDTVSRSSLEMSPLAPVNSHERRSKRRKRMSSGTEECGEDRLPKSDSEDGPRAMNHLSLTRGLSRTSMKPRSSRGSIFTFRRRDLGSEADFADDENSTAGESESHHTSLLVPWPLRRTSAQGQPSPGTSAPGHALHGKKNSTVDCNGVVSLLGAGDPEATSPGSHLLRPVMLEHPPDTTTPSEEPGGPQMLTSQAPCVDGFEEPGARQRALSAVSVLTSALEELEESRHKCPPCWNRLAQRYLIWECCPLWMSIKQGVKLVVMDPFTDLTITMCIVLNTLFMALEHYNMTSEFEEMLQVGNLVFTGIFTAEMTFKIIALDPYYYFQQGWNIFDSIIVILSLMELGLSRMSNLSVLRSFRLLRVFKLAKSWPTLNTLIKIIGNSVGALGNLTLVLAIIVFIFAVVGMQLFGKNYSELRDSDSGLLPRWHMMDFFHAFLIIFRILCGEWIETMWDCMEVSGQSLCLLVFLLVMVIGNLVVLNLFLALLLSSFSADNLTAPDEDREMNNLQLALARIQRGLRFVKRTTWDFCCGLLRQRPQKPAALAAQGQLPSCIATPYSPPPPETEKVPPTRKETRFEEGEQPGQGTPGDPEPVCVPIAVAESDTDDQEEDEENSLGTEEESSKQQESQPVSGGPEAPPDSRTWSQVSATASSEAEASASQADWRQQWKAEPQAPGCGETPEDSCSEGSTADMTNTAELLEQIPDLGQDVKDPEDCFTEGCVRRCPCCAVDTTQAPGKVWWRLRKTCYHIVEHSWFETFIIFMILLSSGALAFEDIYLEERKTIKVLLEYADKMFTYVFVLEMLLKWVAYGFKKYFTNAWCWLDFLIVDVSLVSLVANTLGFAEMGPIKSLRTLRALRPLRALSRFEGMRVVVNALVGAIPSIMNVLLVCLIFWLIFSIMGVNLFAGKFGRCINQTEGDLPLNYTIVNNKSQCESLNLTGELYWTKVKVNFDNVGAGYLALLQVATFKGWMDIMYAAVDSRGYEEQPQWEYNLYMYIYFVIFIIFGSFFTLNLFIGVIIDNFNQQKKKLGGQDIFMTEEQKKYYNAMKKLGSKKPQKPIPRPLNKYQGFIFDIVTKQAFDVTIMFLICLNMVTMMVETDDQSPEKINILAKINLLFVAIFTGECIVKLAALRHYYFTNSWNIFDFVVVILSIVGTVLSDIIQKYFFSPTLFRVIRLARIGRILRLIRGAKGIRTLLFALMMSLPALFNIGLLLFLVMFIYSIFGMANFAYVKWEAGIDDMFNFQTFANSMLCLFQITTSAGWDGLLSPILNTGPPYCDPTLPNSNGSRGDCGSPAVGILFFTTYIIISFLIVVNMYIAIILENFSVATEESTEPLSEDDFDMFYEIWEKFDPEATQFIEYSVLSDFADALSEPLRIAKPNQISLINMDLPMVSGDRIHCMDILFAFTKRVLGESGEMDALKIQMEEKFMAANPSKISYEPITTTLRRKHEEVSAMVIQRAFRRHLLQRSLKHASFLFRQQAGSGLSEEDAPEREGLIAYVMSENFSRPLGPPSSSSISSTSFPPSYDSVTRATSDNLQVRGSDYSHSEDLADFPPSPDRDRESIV

In the case of `CC[C@H](C)[C@@H]1NC(=O)[C@@H]2CSSC[C@@H]3NC(=O)[C@H](C(C)C)NC(=O)[C@H](CC(C)C)NC(=O)[C@H](CC(N)=O)NC(=O)[C@@H]4CCCN4C(=O)[C@H](CCCNC(=N)N)NC(=O)[C@H](CSSC[C@H](NC(=O)[C@@H](N)CC(=O)O)C(=O)N[C@@H](CC(C)C)C(=O)NCC(=O)N[C@@H](C)C(=O)N[C@@H](CC(C)C)C(=O)N[C@@H](CCCNC(=N)N)C(=O)N[C@@H](CCCCN)C(=O)N2)NC(=O)[C@H](CSSC[C@@H](C(=O)N[C@@H](CCCCN)C(=O)N[C@@H](Cc2ccc(O)cc2)C(=O)N[C@H](C(=O)N[C@@H](Cc2ccccc2)C(=O)O)C(C)C)NC(=O)[C@H](Cc2c[nH]c4ccccc24)NC(=O)[C@H](CC(C)C)NC(=O)[C@H](Cc2c[nH]cn2)NC(=O)[C@H]([C@@H](C)O)NC(=O)[C@H](CCCNC(=N)N)NC(=O)[C@H](CO)NC3=O)NC(=O)[C@H](CCCCN)NC(=O)[C@H](CC(=O)O)NC(=O)[C@H](CC(N)=O)NC(=O)[C@H](CC(=O)O)NC(=O)[C@@H]2CCCN2C1=O` [compound 856] (H-DCLGALRKCIPDNDKCCRPNLVCSRTHLWCKYVF-OH; disulfide 2-17, 9-23, 16-30), the IC50 in assay [1] is greater than 5 µM; in assay [2] it was 4.1 µM; in assay [3] it was 4.1 µM.
With `CC[C@H](C)[C@@H]1NC(=O)[C@@H]2CSSC[C@@H]3NC(=O)[C@H](C(C)C)NC(=O)[C@H](CC(C)C)NC(=O)[C@H](CC(N)=O)NC(=O)[C@@H]4CCCN4C(=O)[C@H](CCCNC(=N)N)NC(=O)[C@H](CSSC[C@H](NC(=O)[C@@H](N)CC(=O)O)C(=O)N[C@@H](CC(C)C)C(=O)NCC(=O)N[C@@H](C)C(=O)N[C@@H](CC(C)C)C(=O)N[C@@H](CCCNC(=N)N)C(=O)N[C@@H](CCCCN)C(=O)N2)NC(=O)[C@H](CSSC[C@@H](C(=O)N[C@@H](CCCCN)C(=O)N[C@@H](Cc2ccc(O)cc2)C(=O)N[C@H](C(=O)N[C@@H](Cc2ccccc2)C(=O)O)C(C)C)NC(=O)[C@H](Cc2c[nH]c4ccccc24)NC(=O)[C@H](CCSC)NC(=O)[C@H](Cc2c[nH]cn2)NC(=O)[C@H]([C@@H](C)O)NC(=O)[C@H](CCCNC(=N)N)NC(=O)[C@H](CO)NC3=O)NC(=O)[C@H](CCCCN)NC(=O)[C@H](CC(=O)O)NC(=O)[C@H](CC(N)=O)NC(=O)[C@H](CC(=O)O)NC(=O)[C@@H]2CCCN2C1=O` [compound 857] (H-DCLGALRKCIPDNDKCCRPNLVCSRTHMWCKYVF-OH; disulfide 2-17, 9-23, 16-30), the IC50 in assay [1], in assay [2] and in assay [3] was greater than 5 µM in each case.
On to `CC[C@H](C)[C@@H]1NC(=O)[C@@H]2CSSC[C@@H]3NC(=O)[C@H](C(C)C)NC(=O)[C@H](CC(C)C)NC(=O)[C@H](CC(N)=O)NC(=O)[C@@H]4CCCN4C(=O)[C@H](CCCNC(=N)N)NC(=O)[C@H](CSSC[C@H](NC(=O)[C@@H](N)CC(=O)O)C(=O)N[C@@H](CC(C)C)C(=O)NCC(=O)N[C@@H](C)C(=O)N[C@@H](CC(C)C)C(=O)N[C@@H](CCCNC(=N)N)C(=O)N[C@@H](CCCCN)C(=O)N2)NC(=O)[C@H](CSSC[C@@H](C(=O)N[C@@H](CCCCN)C(=O)N[C@@H](Cc2ccc(O)cc2)C(=O)N[C@H](C(=O)N[C@@H](Cc2ccccc2)C(=O)O)C(C)C)NC(=O)[C@H](Cc2c[nH]c4ccccc24)NC(=O)[C@H](CCC(N)=O)NC(=O)[C@H](Cc2c[nH]cn2)NC(=O)[C@H]([C@@H](C)O)NC(=O)[C@H](CCCNC(=N)N)NC(=O)[C@H](CO)NC3=O)NC(=O)[C@H](CCCCN)NC(=O)[C@H](CC(=O)O)NC(=O)[C@H](CC(N)=O)NC(=O)[C@H](CC(=O)O)NC(=O)[C@@H]2CCCN2C1=O` [compound 858] (H-DCLGALRKCIPDNDKCCRPNLVCSRTHQWCKYVF-OH; disulfide 2-17, 9-23, 16-30), for which the IC50 in assay [1], in assay [2] and in assay [3] was greater than 5 µM in each case.
Turning to `CC[C@H](C)[C@@H]1NC(=O)[C@@H]2CSSC[C@@H]3NC(=O)[C@H](C(C)C)NC(=O)[C@H](CC(C)C)NC(=O)[C@H](CC(N)=O)NC(=O)[C@@H]4CCCN4C(=O)[C@H](CCCNC(=N)N)NC(=O)[C@H](CSSC[C@H](NC(=O)[C@@H](N)CC(=O)O)C(=O)N[C@@H](CC(C)C)C(=O)NCC(=O)N[C@@H](C)C(=O)N[C@@H](CC(C)C)C(=O)N[C@@H](CCCNC(=N)N)C(=O)N[C@@H](CCCCN)C(=O)N2)NC(=O)[C@H](CSSC[C@@H](C(=O)N[C@@H](CCCCN)C(=O)N[C@@H](Cc2ccc(O)cc2)C(=O)N[C@H](C(=O)N[C@@H](Cc2ccccc2)C(=O)O)C(C)C)NC(=O)[C@H](Cc2c[nH]c4ccccc24)NC(=O)[C@H](CO)NC(=O)[C@H](Cc2c[nH]cn2)NC(=O)[C@H]([C@@H](C)O)NC(=O)[C@H](CCCNC(=N)N)NC(=O)[C@H](CO)NC3=O)NC(=O)[C@H](CCCCN)NC(=O)[C@H](CC(=O)O)NC(=O)[C@H](CC(N)=O)NC(=O)[C@H](CC(=O)O)NC(=O)[C@@H]2CCCN2C1=O` [compound 859] (H-DCLGALRKCIPDNDKCCRPNLVCSRTHSWCKYVF-OH; disulfide 2-17, 9-23, 16-30), the IC50 in assay [1], in assay [2] and in assay [3] was greater than 5 µM each time.
On to `CC[C@H](C)[C@@H]1NC(=O)[C@@H]2CSSC[C@@H]3NC(=O)[C@H](C(C)C)NC(=O)[C@H](CC(C)C)NC(=O)[C@H](CC(N)=O)NC(=O)[C@@H]4CCCN4C(=O)[C@H](CCCNC(=N)N)NC(=O)[C@H](CSSC[C@H](NC(=O)[C@@H](N)CC(=O)O)C(=O)N[C@@H](CC(C)C)C(=O)NCC(=O)N[C@@H](C)C(=O)N[C@@H](CC(C)C)C(=O)N[C@@H](CCCNC(=N)N)C(=O)N[C@@H](CCCCN)C(=O)N2)NC(=O)[C@H](CSSC[C@@H](C(=O)N[C@@H](CCCCN)C(=O)N[C@@H](Cc2ccc(O)cc2)C(=O)N[C@H](C(=O)N[C@@H](Cc2ccccc2)C(=O)O)C(C)C)NC(=O)[C@H](Cc2c[nH]c4ccccc24)NC(=O)[C@H](CCCNC(=N)N)NC(=O)[C@H](Cc2c[nH]cn2)NC(=O)[C@H]([C@@H](C)O)NC(=O)[C@H](CCCNC(=N)N)NC(=O)[C@H](CO)NC3=O)NC(=O)[C@H](CCCCN)NC(=O)[C@H](CC(=O)O)NC(=O)[C@H](C)NC(=O)[C@H](CC(=O)O)NC(=O)[C@@H]2CCCN2C1=O` [compound 860] (H-DCLGALRKCIPDADKCCRPNLVCSRTHRWCKYVF-OH; disulfide 2-17, 9-23, 16-30), for which the IC50 in assay [1] is greater than 5 µM; in assay [2] it was greater than 5 µM; in assay [3], 4.5 µM.
For `CC[C@H](C)[C@@H]1NC(=O)[C@@H]2CSSC[C@@H]3NC(=O)[C@H](C(C)C)NC(=O)[C@H](CC(C)C)NC(=O)[C@H](CC(N)=O)NC(=O)[C@@H]4CCCN4C(=O)[C@H](CCCNC(=N)N)NC(=O)[C@H](CSSC[C@H](NC(=O)[C@@H](N)CC(=O)O)C(=O)N[C@@H](CC(C)C)C(=O)NCC(=O)N[C@@H](C)C(=O)N[C@@H](CC(C)C)C(=O)N[C@@H](CCCNC(=N)N)C(=O)N[C@@H](CCCCN)C(=O)N2)NC(=O)[C@H](CSSC[C@@H](C(=O)N[C@@H](CCCCN)C(=O)N[C@@H](Cc2ccc(O)cc2)C(=O)N[C@H](C(=O)N[C@@H](Cc2ccccc2)C(=O)O)C(C)C)NC(=O)[C@H](Cc2c[nH]c4ccccc24)NC(=O)[C@H](CCCNC(=N)N)NC(=O)[C@H](Cc2c[nH]cn2)NC(=O)[C@H]([C@@H](C)O)NC(=O)[C@H](CCCNC(=N)N)NC(=O)[C@H](CO)NC3=O)NC(=O)[C@H](CCCCN)NC(=O)[C@H](CC(=O)O)NC(=O)[C@H](CC(=O)O)NC(=O)[C@H](CC(=O)O)NC(=O)[C@@H]2CCCN2C1=O` [compound 861] (H-DCLGALRKCIPDDDKCCRPNLVCSRTHRWCKYVF-OH; disulfide 2-17, 9-23, 16-30), the IC50 in assay [1], in assay [2] and in assay [3] was greater than 5 µM in each case.
For `CC[C@H](C)[C@@H]1NC(=O)[C@@H]2CSSC[C@@H]3NC(=O)[C@H](C(C)C)NC(=O)[C@H](CC(C)C)NC(=O)[C@H](CC(N)=O)NC(=O)[C@@H]4CCCN4C(=O)[C@H](CCCNC(=N)N)NC(=O)[C@H](CSSC[C@H](NC(=O)[C@@H](N)CC(=O)O)C(=O)N[C@@H](CC(C)C)C(=O)NCC(=O)N[C@@H](C)C(=O)N[C@@H](CC(C)C)C(=O)N[C@@H](CCCNC(=N)N)C(=O)N[C@@H](CCCCN)C(=O)N2)NC(=O)[C@H](CSSC[C@@H](C(=O)N[C@@H](CCCCN)C(=O)N[C@@H](Cc2ccc(O)cc2)C(=O)N[C@H](C(=O)N[C@@H](Cc2ccccc2)C(=O)O)C(C)C)NC(=O)[C@H](Cc2c[nH]c4ccccc24)NC(=O)[C@H](CCCNC(=N)N)NC(=O)[C@H](Cc2c[nH]cn2)NC(=O)[C@H]([C@@H](C)O)NC(=O)[C@H](CCCNC(=N)N)NC(=O)[C@H](CO)NC3=O)NC(=O)[C@H](CCCCN)NC(=O)[C@H](CC(=O)O)NC(=O)[C@H](CCC(=O)O)NC(=O)[C@H](CC(=O)O)NC(=O)[C@@H]2CCCN2C1=O` [compound 862] (H-DCLGALRKCIPDEDKCCRPNLVCSRTHRWCKYVF-OH; disulfide 2-17, 9-23, 16-30), the IC50 in assay [1], in assay [2] and in assay [3] was greater than 5 µM each time.
In the case of `CC[C@H](C)[C@@H]1NC(=O)[C@@H]2CSSC[C@@H]3NC(=O)[C@H](C(C)C)NC(=O)[C@H](CC(C)C)NC(=O)[C@H](CC(N)=O)NC(=O)[C@@H]4CCCN4C(=O)[C@H](CCCNC(=N)N)NC(=O)[C@H](CSSC[C@H](NC(=O)[C@@H](N)CC(=O)O)C(=O)N[C@@H](CC(C)C)C(=O)NCC(=O)N[C@@H](C)C(=O)N[C@@H](CC(C)C)C(=O)N[C@@H](CCCNC(=N)N)C(=O)N[C@@H](CCCCN)C(=O)N2)NC(=O)[C@H](CSSC[C@@H](C(=O)N[C@@H](CCCCN)C(=O)N[C@@H](Cc2ccc(O)cc2)C(=O)N[C@H](C(=O)N[C@@H](Cc2ccccc2)C(=O)O)C(C)C)NC(=O)[C@H](Cc2c[nH]c4ccccc24)NC(=O)[C@H](CCCNC(=N)N)NC(=O)[C@H](Cc2c[nH]cn2)NC(=O)[C@H]([C@@H](C)O)NC(=O)[C@H](CCCNC(=N)N)NC(=O)[C@H](CO)NC3=O)NC(=O)[C@H](CCCCN)NC(=O)[C@H](CC(=O)O)NC(=O)[C@H](Cc2ccccc2)NC(=O)[C@H](CC(=O)O)NC(=O)[C@@H]2CCCN2C1=O` [compound 863] (H-DCLGALRKCIPDFDKCCRPNLVCSRTHRWCKYVF-OH; disulfide 2-17, 9-23, 16-30), the IC50 in assay [1], in assay [2] and in assay [3] was greater than 5 µM in each case.
